The series relates to kidneys. The settings on record: unlabeled competitor 100 or 2000 nmol co-injected with 2 nmol SEQ ID NO: 4-AF647; 1 hour.

Ends that are not written are not given here.

As for KKEEEKKEEEKKEEEKK [SEQ ID NO: 571], the “competition with uptake of the peptide of SEQ ID NO: 4 in kidneys” value is on record as “failed to compete”.

The values above are taken from patent US11331393B2, “Renal-homing peptide conjugates and methods of use thereof” (BLAZE BIOSCIENCE, INC., priority 2017, dated 2022).
